# According to patent publication US20260184663A1, “INDENE COMPOUNDS, PHARMACEUTICAL COMPOSITIONS THEREOF, AND THEIR THERAPEUTIC APPLICATIONS” (NucMito Pharmaceuticals co. Ltd., priority 2022, published 2026):
# Read-outs that look alike come from different tables or passages of the source.
# Tests used:
# Format in all cases: cell-based
# [1] = test system: A549 (lung adenocarcinoma); assay: Antiproliferative activity (CCK-8 cell viability), A549; details: Homo sapiens, 72 h, read-out: Antiproliferative activity in cancerous cells, A549 (inhibition of cell growth); for inhibition at 3.3 µM: Compound concentration: 3.3 μM; for inhibition at 10 µM: Compound concentration: 10 μM
# In short: (§1)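 Cells were seeded at 2,000-5,000/well (HeLa in MEM, HepG2 and SW480 in DMEM, A549 in F-12K, all with 10% FBS) and treated with compound at 3.3, 10 or 30 μM for 72 h at 37° C. CCK-8 was added for 4 h, absorbance was read at 450 nm, and viability was expressed relative to DMSO-treated wells.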
# [2] = test system: MDA-MB-231 (breast cancer); assay: Antiproliferative activity (CCK-8 cell viability), MDA-MB-231; details: Homo sapiens, 72 h; for inhibition at 3.3 µM: Compound concentration: 3.3 μM; for inhibition at 10 µM: Compound concentration: 10 μM; for inhibition at 30 µM: Compound concentration: 30 μM
# In short: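 In this CCK-8 viability assay, MDA-MB-231 cells maintained in Dulbecco's modified Eagle's medium containing 10% fetal bovine serum were placed in 96-well plates (2,000-5,000 cells/well) and treated with compound for 72 h at 37° C. A 4 h incubation with 10 μL CCK-8 followed, plates were read at 450 nm, and viability was expressed against DMSO vehicle wells across replicates.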
# HeLa (cervical cancer) = assay: Antiproliferative activity (CCK-8 cell viability), HeLa; details: Homo sapiens, 72 h, read-out: Antiproliferative activity in cancerous cells, HELA (inhibition of cell growth); for inhibition at 3.3 µM: Compound concentration: 3.3 μM; for inhibition at 10 µM: Compound concentration: 10 μM
# In short: as §1
# SW480 (colon cancer) = assay: Antiproliferative activity (CCK-8 cell viability), SW480; details: Homo sapiens, 72 h; for inhibition at 3.3 µM: Compound concentration: 3.3 μM; for inhibition at 10 µM: Compound concentration: 10 μM; for inhibition at 30 µM: Compound concentration: 30 μM
# In short: as §1
# HepG2 (liver cancer) = assay: Antiproliferative activity (CCK-8 cell viability), HepG2; details: Homo sapiens, 72 h, read-out: Antiproliferative activity in cancerous cells, HepG2 (inhibition of cell growth); for inhibition at 3.3 µM: Compound concentration: 3.3 μM; for inhibition at 10 µM: Compound concentration: 10 μM
# In short: as §1
# [3] = test system: A431 (epidermoid carcinoma); assay: Antiproliferative activity (CCK-8 cell viability), A431; details: Homo sapiens, 72 h, read-out: Antiproliferative activity in cancerous cells, A431 (inhibition of cell growth); for inhibition at 3.3 µM: A-431, Compound concentration: 3.3 μM; for inhibition at 10 µM: A-431, Compound concentration: 10 μM
# In short: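 Cell viability of compound-treated A431 cells was measured with a Cell Counting Kit-8. Each well received 10 μL of CCK-8 after 72 h of compound exposure, followed by 4 h incubation at 37° C. and a 450 nm plate-reader measurement. Percent viability was calculated relative to DMSO controls across replicates.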
# [4] = test system: B16F10 (malignant melanoma); assay: Antiproliferative activity (CCK-8 cell viability), B16F10; details: Mus musculus, 72 h, read-out: Antiproliferative activity in cancerous cells, B16F10 (inhibition of cell growth); for inhibition at 3.3 µM: B16-F10, Compound concentration: 3.3 μM; for inhibition at 10 µM: B16-F10, Compound concentration: 10 μM
# In short: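 Attached B16F10 cells in 96-well plates were incubated with compound at 37° C for 72 h, followed by 10 μL CCK-8 reagent per well and a further 4 h incubation. A multi-well plate reader measured absorbance at 450 nm. Percent viability across replicates was calculated against DMSO vehicle-treated cells.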
# [5] = read-out: Antiproliferative activity in cancerous cells, MDA-MB-231 (inhibition of cell growth)
# [6] = read-out: Antiproliferative activity in cancerous cells, SW480 (inhibition of cell growth)
Structure (SMILES),inhibition at 3.3 µM [1],inhibition at 10 µM [1],"inhibition at 3.3 µM [2, 5]","inhibition at 10 µM [2, 5]",inhibition at 3.3 µM (HeLa (cervical cancer)),inhibition at 10 µM (HeLa (cervical cancer)),inhibition at 3.3 µM (SW480 (colon cancer); [6]),inhibition at 10 µM (SW480 (colon cancer); [6]),inhibition at 3.3 µM (HepG2 (liver cancer)),inhibition at 10 µM (HepG2 (liver cancer)),inhibition at 3.3 µM [3],inhibition at 10 µM [3],inhibition at 3.3 µM [4],inhibition at 10 µM [4],further results
"CC1=C(CC(=O)O)c2cc(F)ccc2/C1=C\c1ccc(CO)cc1 [D11, (Z)-2-(5-Fluoro-1-(4-(hydroxymethyl)benzylidene)-2-methyl-1H-inden-3-yl)acetic acid]",< 30%,≥ 50%,≥ 50%,≥ 50%,< 30%,< 30%,< 30%,≥ 50%,< 30%,< 30%,< 30%,≥ 50%,< 30%,< 30%,"inhibition at 30 µM ([1]; Compound concentration: 30 μM): ≥ 50%; inhibition at 30 µM [2, 5]: ≥ 50%; inhibition at 30 µM (HeLa (cervical cancer); Compound concentration: 30 μM): ≥ 50%; inhibition at 30 µM (SW480 (colon cancer); [6]): ≥ 50%; inhibition at 30 µM (HepG2 (liver cancer); Compound concentration: 30 μM): < 30%; inhibition at 30 µM ([3]; A-431, Compound concentration: 30 μM): ≥ 50%; inhibition at 30 µM ([4]; B16-F10, Compound concentration: 30 μM): < 30%"
"CC1=C(CC(=O)O)c2cc(F)ccc2/C1=C\c1ccc(CCCc2ccc(F)cc2)cc1 [B117, (Z)-2-(5-Fluoro-1-(4-(3-(4-fluorophenyl)propyl)benzylidene)-2-methyl-1H-inden-3-yl)acetic acid]",30 to 50%,≥ 50%,< 30%,< 30%,< 30%,≥ 50%,≥ 50%,≥ 50%,≥ 50%,≥ 50%,30 to 50%,≥ 50%,< 30%,≥ 50%,–
"CC1=C(CC(=O)O)c2cc(F)ccc2/C1=C\c1ccc(S(=O)(=O)c2ccc(F)cc2)cc1 [C40, (Z)-2-(5-Fluoro-1-(4-((4-fluorophenyl)sulfonyl)benzylidene)-2-methyl-1H-inden-3-yl)acetic acid]",< 30%,30 to 50%,30 to 50%,30 to 50%,< 30%,≥ 50%,< 30%,≥ 50%,< 30%,≥ 50%,30 to 50%,30 to 50%,< 30%,≥ 50%,"inhibition at 30 µM ([2]; read-out: Antiproliferative activity in cancerous cells, MDA-MB-231): 30 to 50%"
"CC1=C(CC(=O)O)c2cc(C)ccc2/C1=C\c1ccc(CCCc2ccc(Cl)cc2)cc1 [B123, (Z)-2-(1-(4-(3-(4-Chlorophenyl)propyl)benzylidene)-2,5-dimethyl-1H-inden-3-yl)acetic acid]",≥ 50%,≥ 50%,< 30%,≥ 50%,< 30%,≥ 50%,30 to 50%,≥ 50%,30 to 50%,≥ 50%,≥ 50%,≥ 50%,≥ 50%,≥ 50%,–
"COc1ccc(Oc2cccc(/C=C3/C(C)=C(CC(=O)O)c4cc(Cl)ccc43)c2)cc1 [C92, (Z)-2-(5-Chloro-1-(3-(4-methoxyphenoxy)benzylidene)-2-methyl-1H-inden-3-yl)acetic acid]",< 30%,≥ 50%,< 30%,< 30%,≥ 50%,≥ 50%,≥ 50%,≥ 50%,≥ 50%,≥ 50%,≥ 50%,≥ 50%,< 30%,< 30%,–
"COc1ccc2c(c1)C(CC(=O)O)=C(C)/C2=C/c1ccc(Oc2ccc(F)c(F)c2)cc1 [C75, (Z)-2-(1-(4-(3,4-Difluorophenoxy)benzylidene)-5-methoxy-2-methyl-1H-inden-3-yl)acetic acid]",30 to 50%,≥ 50%,≥ 50%,≥ 50%,≥ 50%,≥ 50%,< 30%,30 to 50%,< 30%,≥ 50%,≥ 50%,≥ 50%,≥ 50%,≥ 50%,–
"COc1ccc(Oc2ccc(/C=C3/C(C)=C(CC(=O)O)c4cc(Cl)ccc43)cc2)cc1 [C82, (Z)-2-(5-Chloro-1-(4-(4-methoxyphenoxy)benzylidene)-2-methyl-1H-inden-3-yl)acetic acid]",30 to 50%,≥ 50%,≥ 50%,≥ 50%,< 30%,≥ 50%,< 30%,< 30%,< 30%,≥ 50%,≥ 50%,≥ 50%,≥ 50%,≥ 50%,"inhibition at 30 µM (SW480 (colon cancer); read-out: Antiproliferative activity in cancerous cells, SW480): 30 to 50%"
"CCc1ccc2c(c1)C(CC(=O)O)=C(C)/C2=C/c1ccc(COCc2ccc(F)cc2)cc1 [B107, (Z)-2-(5-Ethyl-1-(4-(((4-fluorobenzyl)oxy)methyl)benzylidene)-2-methyl-1H-inden-3-yl)acetic acid]",30 to 50%,≥ 50%,< 30%,30 to 50%,< 30%,≥ 50%,≥ 50%,≥ 50%,< 30%,< 30%,≥ 50%,30 to 50%,< 30%,30 to 50%,–
"CC1=C(CC(=O)O)c2cc(F)ccc2/C1=C\c1ccc(COCc2ccc(C(F)(F)F)cc2)cc1 [B111, (Z)-2-(5-Fluoro-2-methyl-1-(4-(((4-(trifluoromethyl)benzyl)oxy)methyl)-benzylidene)-1H-inden-3-yl)acetic acid]",30 to 50%,≥ 50%,30 to 50%,≥ 50%,≥ 50%,≥ 50%,< 30%,≥ 50%,< 30%,≥ 50%,< 30%,≥ 50%,30 to 50%,≥ 50%,–
